Measured values from patent US20050026911A1, “Benzotriazapinone salts and methods for using same” (priority 2003, published 2005).

These compounds were tested against T1, gastrin (CCK2) receptors (Rattus norvegicus, UniProt P30553) (assay: gastrin (CCK2) antagonist activity in an immature rat stomach assay). Settings: pentagastrin dose-response curves, acid secretion, read-out: pKB rat stomach (converted).
T1 construct: The stomach was excised and flushed with ca. 1 ml of unbuffered physiological saline solution; from tissue; host or cells: isolated whole stomach of immature rats (ca. 21 days old)
T1 sequence (P30553 1-452): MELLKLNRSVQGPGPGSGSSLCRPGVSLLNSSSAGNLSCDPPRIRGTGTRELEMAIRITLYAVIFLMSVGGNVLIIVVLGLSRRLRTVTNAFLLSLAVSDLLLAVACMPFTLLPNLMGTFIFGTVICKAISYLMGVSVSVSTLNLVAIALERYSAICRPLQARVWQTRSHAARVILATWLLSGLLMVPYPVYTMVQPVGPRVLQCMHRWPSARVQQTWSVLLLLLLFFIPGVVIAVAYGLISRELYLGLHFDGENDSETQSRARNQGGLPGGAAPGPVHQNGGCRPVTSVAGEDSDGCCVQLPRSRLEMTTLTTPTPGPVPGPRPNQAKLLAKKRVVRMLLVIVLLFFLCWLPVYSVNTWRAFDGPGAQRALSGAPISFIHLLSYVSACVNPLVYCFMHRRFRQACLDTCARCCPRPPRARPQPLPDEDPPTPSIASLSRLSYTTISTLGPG
Summary of the method: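 Pentagastrin dose-response curves were run cumulatively 60 min after drug went into the serosal bath, itself after 120 min stabilisation. Preparation: perfused stomach from rats ca. 21 days old (33-50 g), with unbuffered saline under 100% O2 at 1 ml min^−1 and perfusate pH monitored.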
In the case of `Cc1ccc2c(c1)N(CC(=O)C(C)(C)C)C(=O)N(CC(=O)Nc1cccc(C(=O)O)c1)N=C2C1CCCCC1` [Example 112, 3-{2-[5-Cyclohexyl-1-(3,3-dimethyl-2-oxo-butyl)-8-methyl-2-oxo-1,2-dihydro-3H-1,3,4-benzotriazepin-3-yl]-acetylamino}-benzoic acid], the Kb is reported as 40.7 nM.
`CC(C)(C)C(=O)CN1C(=O)N(CC(=O)Nc2cccc(C(=O)O)c2)N=C(C2CCCCC2)c2c(F)cccc21` [Example 113, 3-{2-[5-Cyclohexyl-1-(3,3-dimethyl-2-oxo-butyl)-6-fluoro-2-oxo-1,2-dihydro-3H-1,3,4-benzotriazepin-3-yl]-acetylamino}-benzoic acid] showed a Kb of 6.03 nM.
Compound `Cc1cccc2c1C(C1CCCCC1)=NN(CC(=O)Nc1cccc(C(=O)O)c1)C(=O)N2CC(=O)C(C)(C)C` [Example 114, 3-{2-[5-Cyclohexyl-1-(3,3-dimethyl-2-oxo-butyl)-6-methyl-2-oxo-1,2-dihydro-3H-1,3,4-benzotriazepin-3-yl]-acetylamino}-benzoic acid] has a Kb of 35.5 nM.
For `CC(C)(C)C(=O)CN1C(=O)N(CC(=O)Nc2ccc3c(ccn3CC(=O)O)c2)N=C(C2CCCCC2)c2ccccc21` [Example 117, (5-{2-[5-Cyclohexyl-1-(3,3-dimethyl-2-oxo-butyl)-2-oxo-1,2-dihydro-3H-1,3,4-benzotriazepin-3-yl]-acetylamino}-indol-1-yl)-acetic acid], the Kb was 27.5 nM.
With `O=C(O)Cc1cccc(NC(=O)CN2N=C(C3CCCCC3)c3ccccc3N(CC(=O)C3CC3)C2=O)c1` [Example 119] the Kb was 24.5 nM.
Work on `O=C(O)CSc1cccc(NC(=O)CN2N=C(C3CCCCC3)c3ccccc3N(CC(=O)C3CC3)C2=O)c1` [Example 120, [3-(2-{5-Cyclohexyl-1-(2-cyclopropyl-2-oxo-ethyl)-2-oxo-1,2-dihydro-3H-1,3,4-benzotriazepin-3-yl]-acetylamino}-phenylsulfanyl)-acetic acid] yielded a Kb of 37.2 nM.
With `CC(C)(C)C(=O)CN1C(=O)N(CC(=O)Nc2cccc(N3CCOCC3)c2)N=C(C2CCCCC2)c2ccccc21` [Example 123, 2-[5-Cyclohexyl-1-(3,3-dimethyl-2-oxo-butyl)-2-oxo-1,2-dihydro-3H-1,3,4-benzotriazepin-3-yl]-N-(3-morpholin-4-yl-phenyl)-acetamide] the Kb was 18.2 nM.
Compound `CN(c1cccc(NC(=O)CN2N=C(C3CCCCC3)c3ccccc3N(CC(=O)C3CCCC3)C2=O)c1)c1nnn[nH]1` [Example 124, 2-[5-Cyclohexyl-1-(2-cyclopentyl-2-oxo-ethyl)-2-oxo-1,2-dihydro-3H-1,3,4-benzotriazepin-3-yl]-N-(3-[methyl-(2H-tetrazol-5-yl)-amino]-phenyl)-acetamide] has a Kb of 2.14 nM.
`O=C(CN1N=C(C2CCCCC2)c2ccccc2N(CC(=O)C2CCCC2)C1=O)Nc1cccc(-c2nnn[nH]2)c1` [Example 125, 2-[5-Cyclohexyl-1-(2-cyclopentyl-2-oxo-ethyl)-2-oxo-1,2-dihydro-3H-1,3,4-benzotriazepin-3-yl]-N-[3-(2H-tetrazol-5-yl)-phenyl]-acetamide] was tested, and the Kb was 4.37 nM.
Work on `O=C(O)Cn1ccc2ccc(NC(=O)CN3N=C(C4CCCCC4)c4ccccc4N(CC(=O)C4CCCC4)C3=O)cc21` [Example 126, (6-{2-[5-Cyclohexyl-1-(2-cyclopentyl-2-oxo-ethyl)-2-oxo-1,2-dihydro-3H-1,3,4-benzotriazepin-3-yl]-acetylamino}-indol-1-yl)-acetic acid] yielded a Kb of 0.0575 nM.
With `CC(C)(C)C(=O)CN1C(=O)N(CC(=O)Nc2cccc3c2ccn3CC(=O)O)N=C(C2CCCCC2)c2ccccc21` [Example 127, (4-{2-[5-Cyclohexyl-1-(3,3-dimethyl-2-oxo-butyl)-2-oxo-1,2-dihydro-3H-1,3,4-benzotriazepin-3-yl]-acetylamino}-indol-1-yl)-acetic acid] the Kb was 2.09 nM.
`CC(C)(C)C(=O)CN1C(=O)N(CC(=O)Nc2cccc3c2cnn3CC(=O)O)N=C(C2CCCCC2)c2ccccc21` [Example 130, (4-{2-[5-Cyclohexyl-1-(3,3-dimethyl-2-oxo-butyl)-2-oxo-1,2-dihydro-3H-1,3,4-benzotriazepin-3-yl]-acetylamino}-indazol-1-yl)-acetic acid] showed a Kb of 44.7 nM.
Compound `CC(C)(C)C(=O)CN1C(=O)N(CC(=O)Nc2ccc3ccn(Cc4nnn[nH]4)c3c2)N=C(C2CCCCC2)c2ccccc21` [Example 131, 2-[5-Cyclohexyl-1-(3,3-dimethyl-2-oxo-butyl)-2-oxo-1,2-dihydro-3H-1,3,4-benzotriazepin-3-yl]-N-[1-(1H-tetrazol-5-ylmethyl)-1H-indol-6-yl]-acetamide] has a Kb of 1.62 nM.
In the case of `Cc1cccc2c1C(C1CCCCC1)=NN(CC(=O)Nc1cccc(CC(=O)O)c1)C(=O)N2CC(=O)C(C)(C)C` [Example 132, (3-{2-[5-Cyclohexyl-1-(3,3-dimethyl-2-oxo-butyl)-6-methyl-2-oxo-1,2-dihydro-3H-1,3,4-benzotriazepin-3-yl]-acetylamino}-phenyl)-acetic acid], the Kb is reported as 66.1 nM.
Compound `CC1(C(=O)CN2C(=O)N(CC(=O)Nc3cccc(CC(=O)O)c3)N=C(C3CCCCC3)c3ccccc32)CCCCC1` [Example 133, [3-(2-{5-Cyclohexyl-1-[2-(1-methyl-cyclohexyl)-2-oxo-ethyl]-2-oxo-1,2-dihydro-3H-1,3,4-benzotriazepin-3-yl}-acetylamino)-phenyl]-acetic acid] has a Kb of 14.1 nM.
`CC1(C(=O)CN2C(=O)N(CC(=O)Nc3cccc(SCC(=O)O)c3)N=C(C3CCCCC3)c3ccccc32)CCCCC1` [Example 134, [3-(2-{5-Cyclohexyl-1-[2-(1-methyl-cyclohexyl)-2-oxo-ethyl]-2-oxo-1,2-dihydro-3H-1,3,4-benzotriazepin-3-yl}-acetylamino)-phenylsulfanyl]-acetic acid] gave a Kb of 17.4 nM.
`Cc1nc(-c2cccc(NC(=O)CN3N=C(C4CCCCC4)c4ccccc4N(CC(=O)C4CCCC4)C3=O)c2)cs1` [Example 136, 2-[5-Cyclohexyl-1-(2-cyclopentyl-2-oxo-ethyl)-2-oxo-1,2-dihydro-3H-1,3,4-benzotriazepin-3-yl]-N-[3-(2-methyl-thiazol-4-yl)-phenyl]-acetamide] was tested, and the Kb was 6.03 nM.
Work on `O=C(CN1N=C(C2CCCCC2)c2ccccc2N(CC(=O)C2CCCC2)C1=O)Nc1cccc(-c2csc(C(=O)O)n2)c1` [Example 137, 4-(3-{2-[5-Cyclohexyl-1-(2-cyclopentyl-2-oxo-ethyl)-2-oxo-1,2-dihydro-3H-1,3,4-benzotriazepin-3-yl]-acetylamino}-phenyl)-thiazole-2-carboxylic acid] yielded a Kb of 2.88 nM.
`COC(=O)c1coc(-c2cccc(NC(=O)CN3N=C(C4CCCCC4)c4ccccc4N(CC(=O)C(C)(C)C)C3=O)c2)n1` [Example 140, 2-(3-{2-[5-Cyclohexyl-1-(3,3-dimethyl-2-oxo-butyl)-2-oxo-1,2-dihydro-3H-1,3,4-benzotriazepin-3-yl]-acetylamino}-phenyl)-oxazole-4-carboxylic acid methyl ester] was tested, and the Kb was 1.12 nM.
`CC(C)(C)C(=O)CN1C(=O)N(CC(=O)Nc2cccc3nn(CC(=O)O)cc23)N=C(C2CCCCC2)c2ccccc21` [Example 142, (4-{2-[5-Cyclohexyl-1-(3,3-dimethyl-2-oxo-butyl)-2-oxo-1,2-dihydro-3H-1,3,4-benzotriazepin-3-yl]-acetylamino}-indazol-2-yl)-acetic acid] gave a Kb of 15.5 nM.
For `CNCCN(C)c1cccc(NC(=O)CN2N=C(C3CCCCC3)c3ccccc3N(CC(=O)C(C)(C)C)C2=O)c1` [Example 143, 2-[5-Cyclohexyl-1-(3,3-dimethyl-2-oxo-butyl)-2-oxo-1,2-dihydro-3H-1,3,4-benzotriazepin-3-yl]-N-{3-[methyl-(2-methylamino-ethyl)-amino]-phenyl}-acetamide], the Kb was 117 nM.
Work on `CC(C)(C)C(=O)CN1C(=O)N(CC(=O)Nc2cccc(-c3nc(C(=O)O)co3)c2)N=C(C2CCCCC2)c2ccccc21` [Example 144, 2-(3-{2-[5-Cyclohexyl-1-(3,3-dimethyl-2-oxo-butyl)-2-oxo-1,2-dihydro-3H-1,3,4-benzotriazepin-3-yl]-acetylamino}-phenyl)-oxazole-4-carboxylic acid] yielded a Kb of 4.17 nM.
`CC(C)(C)C(=O)CN1C(=O)N(CC(=O)Nc2cccc(-c3ccc(C(=O)O)o3)c2)N=C(C2CCCCC2)c2ccccc21` [Example 145, 5-(3-{2-[5-Cyclohexyl-1-(3,3-dimethyl-2-oxo-butyl)-2-oxo-1,2-dihydro-3H-1,3,4-benzotriazepin-3-yl]-acetylamino}-phenyl)-furan-2-carboxylic acid] gave a Kb of 3.39 nM.
Compound `CC(C)(C)C(=O)CN1C(=O)N(CC(=O)Nc2cccc(-c3ccc(C(=O)O)cc3)c2)N=C(C2CCCCC2)c2ccccc21` [Example 146, 3′-{2-[5-Cyclohexyl-1-(3,3-dimethyl-2-oxo-butyl)-2-oxo-1,2-dihydro-3H-1,3,4-benzotriazepin-3-yl]-acetylamino}-biphenyl-4-carboxylic acid] has a Kb of 7.08 nM.
`CC(C)(C)C(=O)CN1C(=O)N(CC(=O)Nc2cccc(/C=C3\SC(=O)NC3=O)c2)N=C(C2CCCCC2)c2ccccc21` [Example 147, 2-[5-Cyclohexyl-1-(3,3-dimethyl-2-oxo-butyl)-2-oxo-1,2-dihydro-3H-1,3,4-benzotriazepin-3-yl]-N-[3-(2,4-dioxo-thiazolidin-5-ylidenemethyl)-phenyl]-acetamide] was tested, and the Kb was 8.32 nM.
